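48-hour exposure; five concentrations; linearly interpolated endpoints. GI50 = concentration required for 50% inhibition of growth.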 Calls of active or inactive are those of the source. Cut-off read from the data, not from the text of the source: active = GI50 up to about 1.1 µM and inactive = higher.
Assays:
Test in all cases: NCI tumour cell line growth inhibition, 48 h
[1] = system: ACHN
[2] = system: SNB-75
[3] = system: UACC-257
[4] = system: SNB-19
[5] = system: UO-31
[6] = system: MOLT-4
[7] = system: HCT-116
[8] = system: DU-145
[9] = system: IGROV-1
[10] = system: MDA-MB-435
[11] = system: OVCAR-4
[12] = system: M14
[13] = system: PC-3
[14] = system: Malme-3M
[15] = system: LOX IMVI
[16] = system: SK-MEL-2
[17] = system: SW-620
[18] = system: SF-295
[19] = system: CCRF-CEM
[20] = system: MDA-N
[21] = system: HT-29
[22] = system: BT-549
[23] = system: SK-MEL-28
[24] = system: MCF7
[25] = system: HL-60
[26] = system: OVCAR-3
[27] = system: K562
[28] = system: 786-0
[29] = system: SF-268
[30] = system: U-251
[31] = system: SF-539
[32] = system: A498
[33] = system: TK-10
[34] = system: A549
[35] = system: T47D
[36] = system: KM12
[37] = system: CAKI-1
[38] = system: NCI-H23
[39] = system: NCI/ADR-RES
[40] = system: OVCAR-5
[41] = system: NCI-H226
[42] = system: SK-MEL-5
[43] = system: EKVX
[44] = system: SN12C
[45] = system: OVCAR-8
[46] = system: HCT-15
[47] = system: Hs-578T
[48] = system: HOP-92
[49] = system: SR
[50] = system: RXF 393
[51] = system: NCI-H522
[52] = system: NCI-H460
[53] = system: SK-OV-3
[54] = system: MDA-MB-231
[55] = system: UACC-62
[56] = system: COLO 205
[57] = system: HOP-62
[58] = system: HCC 2998
[59] = system: RPMI-8226

CCc1ncnc2cc(OCC3CO3)c(OC)cc12 (stereo not given)
GI50 [1]: 1.37 µM (inactive) | GI50 [2]: 17.3 µM (inactive) | GI50 [3]: 13.6 µM (inactive) | GI50 [4]: 6.52 µM (inactive) | GI50 [5]: 2.03 µM (inactive) | GI50 [6]: 0.153 µM (active) | GI50 [7]: 0.577 µM (active) | GI50 [8]: 4.15 µM (inactive) | GI50 [9]: 1.06 µM (active) | GI50 [10]: 5.12 µM (inactive) | GI50 [11]: 6.38 µM (inactive) | GI50 [12]: 5.28 µM (inactive) | GI50 [13]: 7.31 µM (inactive) | GI50 [14]: 12.3 µM (inactive) | GI50 [15]: 0.646 µM (active) | GI50 [16]: 3.32 µM (inactive) | GI50 [17]: 0.735 µM (active) | GI50 [18]: 3.15 µM (inactive) | GI50 [19]: 0.436 µM (active) | GI50 [20]: 5.94 µM (inactive) | GI50 [21]: 4.83 µM (inactive) | GI50 [22]: 3.95 µM (inactive) | GI50 [23]: 11.7 µM (inactive) | GI50 [24]: 0.557 µM (active) | GI50 [25]: 0.889 µM (active) | GI50 [26]: 11.1 µM (inactive) | GI50 [27]: 1.1 µM (active) | GI50 [28]: 0.902 µM (active) | GI50 [29]: 2.64 µM (inactive) | GI50 [30]: 4.31 µM (inactive) | GI50 [31]: 5.98 µM (inactive) | GI50 [32]: 21.3 µM (inactive) | GI50 [33]: 10.8 µM (inactive) | GI50 [34]: 4.49 µM (inactive) | GI50 [35]: 20.9 µM (inactive) | GI50 [36]: 5.58 µM (inactive) | GI50 [37]: 5.06 µM (inactive) | GI50 [38]: 2.61 µM (inactive) | GI50 [39]: 7.23 µM (inactive) | GI50 [40]: 13 µM (inactive) | GI50 [41]: 6.49 µM (inactive) | GI50 [42]: 6.34 µM (inactive) | GI50 [43]: 10.6 µM (inactive) | GI50 [44]: 1.3 µM (inactive) | GI50 [45]: 0.647 µM (active) | GI50 [46]: 3.09 µM | GI50 [47]: 5.77 µM (inactive) | GI50 [48]: 4.26 µM (inactive) | GI50 [49]: 0.209 µM (active) | GI50 [50]: 2.28 µM (inactive) | GI50 [51]: 2.31 µM (inactive) | GI50 [52]: 5.53 µM (inactive) | GI50 [53]: 22.9 µM (inactive) | GI50 [54]: 7.24 µM (inactive) | GI50 [55]: 2.86 µM (inactive) | GI50 [56]: 8.17 µM (inactive) | GI50 [57]: 3.18 µM (inactive)

CC(C)C1CNC(=O)C2(/C=N/C(C(C)C)CNC(=O)C3(/C=N/1)CCCO3)CCCO2 (stereo not given)
GI50 [1]: > 10 µM (inactive) | GI50 [2]: > 10 µM (inactive) | GI50 [3]: > 10 µM (inactive) | GI50 [4]: > 10 µM (inactive) | GI50 [58]: > 10 µM (inactive) | GI50 [6]: > 10 µM (inactive) | GI50 [7]: > 10 µM (inactive) | GI50 [8]: > 10 µM (inactive) | GI50 [9]: > 10 µM (inactive) | GI50 [10]: > 10 µM (inactive) | GI50 [11]: > 10 µM (inactive) | GI50 [12]: > 10 µM (inactive) | GI50 [13]: > 10 µM (inactive) | GI50 [14]: > 10 µM (inactive) | GI50 [17]: > 10 µM (inactive) | GI50 [18]: > 10 µM (inactive) | GI50 [19]: > 10 µM (inactive) | GI50 [20]: > 10 µM (inactive) | GI50 [21]: > 10 µM (inactive) | GI50 [22]: > 10 µM (inactive) | GI50 [23]: > 10 µM (inactive) | GI50 [24]: > 10 µM (inactive) | GI50 [25]: > 10 µM (inactive) | GI50 [26]: > 10 µM (inactive) | GI50 [27]: > 10 µM (inactive) | GI50 [28]: > 10 µM (inactive) | GI50 [29]: > 10 µM (inactive) | GI50 [30]: > 10 µM (inactive) | GI50 [31]: > 10 µM (inactive) | GI50 [32]: > 10 µM (inactive) | GI50 [33]: > 10 µM (inactive) | GI50 [34]: > 10 µM (inactive) | GI50 [35]: > 10 µM (inactive) | GI50 [36]: > 10 µM (inactive) | GI50 [37]: > 10 µM (inactive) | GI50 [38]: > 10 µM (inactive) | GI50 [39]: > 10 µM (inactive) | GI50 [59]: > 10 µM (inactive) | GI50 [42]: > 10 µM (inactive) | GI50 [43]: > 10 µM (inactive) | GI50 [44]: > 10 µM (inactive) | GI50 [45]: > 10 µM (inactive) | GI50 [46]: > 10 µM | GI50 [47]: > 10 µM (inactive) | GI50 [48]: > 10 µM (inactive) | GI50 [49]: > 10 µM (inactive) | GI50 [50]: > 10 µM (inactive) | GI50 [51]: > 10 µM (inactive) | GI50 [53]: > 10 µM (inactive) | GI50 [54]: > 10 µM (inactive) | GI50 [55]: > 10 µM (inactive) | GI50 [56]: > 10 µM (inactive) | GI50 [57]: > 10 µM (inactive)
